Source: PMC11018795, “The regulatory relationship between NAMPT and PD-L1 in cancer and identification of a dual-targeting inhibitor” (EMBO Molecular Medicine, 2024)
Values joined by “and” are separate entries in the source; they are usually repeats but may differ in a detail not shown here. Equal values may be shown once. Read-outs that look alike come from different tables or passages of the source.

Key:
[1] = test system: NAD+ content of A549 KO HIF-1α cells; assay: NAD+ content, A549 KO HIF-1α cells with or without PBMC; assay type: cell-based, human; set-up: unit not given here
Procedure: (§1) NAD^+ assays were performed to quantify the total NAD^+ content. NAD^+ assay was performed using the NAD/NADH Assay Kit (ab65348; Abcam) according to the manufacturer’s recommended protocol.

[2] = test system: IFN-γ and TNF-α secretion, LLC cells co-cultured with T cells; assay: ELISA of IFN-γ and TNF-α, LLC cells under co-culture condition; assay type: cell-based, mouse; set-up: unit not given here; details: in vitro
[3] = test system: NAD+ content of A549 cells; assay: NAD+ content, A549 cells with or without PBMC; assay type: cell-based, human; set-up: unit not given here
Procedure: as §1

[4] = test system: pyruvate content of LLC cells; assay: Pyruvate (PA) content in LLC cells with or without T cells; assay type: cell-based, mouse; set-up: unit not given beside the values
Description: Supplement 44321_2024_51_MOESM3_ESM.zip/Fig-2-G.xlsx, sheet "Sheet1" | column: "-T cells; "+T cells

[5] = test system: glycolytic genes in A549 KO HIF-1α cells; assay: RT-PCR of glycolytic genes, A549 KO HIF-1α cells co-cultured with PBMC; assay type: cell-based, human; details: A549 KO HIF-1α co-cultured with PBMC
Procedure: (§2) Total RNA was isolated using TRIzol reagent (Invitrogen, 15596026) according to the manufacturer's protocol. First-strand cDNA synthesis was performed using a RevertAid First Strand cDNA Synthesis Kit (Thermo Fisher, […]). Quantitative real-time PCR analysis was performed by mixing 10 μl SYBR, 0.4 μM forward primer, 0.4 μM reverse primer, 1 μl cDNA, and 8.2 μl distilled water per sample with Top Green qPCR SuperMix (Transgene, AQ601-04) by the manufacturer's protocols. GAPDH was used as an endogenous control. All qRT-PCRs were set up in triplicate using three biological replicates for each sample. Primer information is shown in Appendix Table S1.

[6] = test system: glycolytic genes in LLC cells; assay: RT-PCR of glycolytic genes in LLC cells with or without T cells; assay type: cell-based, mouse; set-up: key to HK2 mRNA level / Glut1 mRNA level / Aldoa mRNA level / Eno1 mRNA level: relative mRNA level normalized to GAPDH (endogenous control)
Procedure: as §2

[7] = test system: pyruvate content of A549 KO HIF-1α cells; assay: Pyruvate (PA) content, A549 KO HIF-1α cells with or without PBMC; assay type: cell-based, human; set-up: unit not given beside the values
Description: Supplement 44321_2024_51_MOESM3_ESM.zip/Fig-2-K-PA.xlsx, sheet "Sheet1" | column: A549 KO HIF-1α

[8] = test system: glycolytic genes in A549 cells; assay: RT-PCR of glycolytic genes, A549 cells co-cultured with PBMC; assay type: cell-based, human; set-up: key to Aldoa mRNA level / Eno1 mRNA level / HK2 mRNA level / Glut1 mRNA level: relative mRNA level normalized to GAPDH (endogenous control)
Procedure: as §2

[9] = test system: NAD+ content of LLC cells; assay: NAD+ content in LLC cells with or without T cells; assay type: cell-based, mouse; set-up: unit not given here
Procedure: as §1

[10] = test system: pyruvate content of A549 cells; assay: Pyruvate (PA) content, A549 cells with or without PBMC; assay type: cell-based, human; set-up: unit not given beside the values
Description: Supplement 44321_2024_51_MOESM3_ESM.zip/Fig-2-K-PA.xlsx, sheet "Sheet1" | column: A549

[11] = test system: IFN-γ and TNF-α in LLC OE NAMPT/PD-L1 tumor tissues; assay: ELISA of IFN-γ and TNF-α in tumor tissues of LLC OE NAMPT/PD-L1 mouse model; set-up: unit not given here; details: in vivo, tumor tissue, CQ-85 20 mg/kg
[12] = test system: LLC OE NAMPT/PD-L1 tumors; assay: LLC OE NAMPT/PD-L1 tumor-bearing C57BL/6 mice; assay type: in vivo, mouse; details: 20 mg/kg i.p.; 14 days; Fig 7B
[13] = test system: NAMPT expression in LLC OE NAMPT/PD-L1 tumors; assay: NAMPT protein expression in LLC constructed xenograft model; assay type: in vivo, mouse; details: CQ-85 20 mg/kg vs control group
[14] = test system: NAD+ content of LLC OE NAMPT/PD-L1 tumor tissue; assay: NAD+ in tumor tissue, LLC OE NAMPT/PD-L1 mouse model; assay type: in vivo; details: 20 mg/kg; tumor tissue
A20 tumors = assay: A20 tumor-bearing Balb/c mice; assay type: in vivo, mouse; details: A20 model; FK866 20 mg/kg, LZFPN-90 20 and 40 mg/kg i.p.
[15] = test system: PD-L1 expression in A2780 and LLC cells; assay: PD-L1 expression (western blot, flow cytometry, qRT-PCR) in A2780 and LLC cells; assay type: cell-based, human, mouse; details: 72 h
Procedure: For surface marker detection, tumor single-cell suspensions and spleen lymphocytes were incubated at 4 °C for 30 min in PBS with 0.1% Fixable Viability Dye (eBioscience 65-0863-14). Cells were washed and incubated in staining buffer (PBS with 1% FBS) with surface marker antibodies, the dilution ratio of all flow antibodies was 1:200 (BioLegend, CD3-APC 100235, CD3-PE 100205, CD4-FITC 100405, CD8-APC 100711, CD8-PE 100707, CD45-APC 103112, PD-L1-PE 124307, adsorbed secondary antibody-APC, and CD69-PE 104511). The cells were then washed and resuspended in staining buffer for flow cytometry. For cytokine detection, tumor single-cell suspensions and spleen lymphocytes were incubated in RPMI-1640 with 10% FBS and 0.2% Cell Stimulation Cocktail (plus protein transport inhibitors) (eBioscience 00-4975-93) at 37 °C for 12 h. […] Flow cytometry was performed on ACEA NovoCyte, and the data were analyzed using NovoExpress. […]
Total RNA was isolated using TRIzol reagent (Invitrogen, 15596026) according to the manufacturer’s protocol. […] Quantitative real-time PCR analysis was performed by mixing 10 μl SYBR, 0.4 μM forward primer, 0.4 μM reverse primer, 1 μl cDNA, and 8.2 μl distilled water per sample with Top Green qPCR SuperMix (Transgene, AQ601-04) by the manufacturer’s protocols. […]

[16] = test system: NAD+ content of A2780 cells; assay: NAD+ assay in A2780 cells; assay type: cell-based, human
Procedure: as §1

## COc1nc(OCc2cccc(-c3ccccc3)c2C)ccc1CNCCNC(C)=O [BMS202]
[1]; +PBMC, listed as BM202
  content of NAD+: 10.2853 and 11.0822 and 11.211
[1]; -PBMC, listed as BM202
  content of NAD+: 12.9598 and 12.8438 and 11.842
[2]; listed as B202
  IFN-γ (ELISA): 155.867 and 141.57 and 156.336
  TNF-α (ELISA): 199.656 and 157.29 and 212.022
[3]; +PBMC, listed as BM202
  content of NAD+: 8.982 and 8.901 and 8.955
[3]; -PBMC, listed as BM202
  content of NAD+: 11.875 and 11.7227 and 11.9827
[4]; +T Cells, listed as B202
  content of pyruvate (PA): 0.5383 and 0.5346 and 0.5309
[4]; -T Cells, listed as B202
  content of pyruvate (PA): 0.3322 and 0.3345 and 0.3513
[5]; listed as B202
  Aldoa mRNA level: 0.4841 and 0.4127 and 0.7087
  Eno1 mRNA level: 0.9159 and 1.082 and 0.8085
  HK2 mRNA level: 0.02498 and 0.01465 and 0.021
  Pfk1 mRNA level: 0.7631 and 0.9395 and 1
[6]; +T Cells, listed as B202
  Eno1 mRNA level: 3.494 and 3.959 and 2.858
  HK2 mRNA level: 2.644 and 2.833 and 1.744
  Pfk1 mRNA level: 5.686 and 6.904
[6]; -T Cells, listed as B202
  Aldoa mRNA level: 0.06048 and 0.109 and 0.06804
  Eno1 mRNA level: 0.7778 and 1.3449 and 0.7359
  Glut1 mRNA level: 0.3392 and 0.2003 and 0.2483
  HK2 mRNA level: 1.261 and 1.177 and 0.9693
[7]; +PBMC, listed as BM202
  content of pyruvate (PA): 0.1117 and 0.1102 and 0.1239
[7]; -PBMC, listed as BM202
  content of pyruvate (PA): 0.09589 and 0.0979 and 0.1044
[8]; listed as B202
  Aldoa mRNA level: 1.286 and 1.53 and 1.628
  Eno1 mRNA level: 1.184 and 1.457 and 1.192
  Glut1 mRNA level: 1.195 and 1.4406 and 1.289
  HK2 mRNA level: 4.691 and 5.816 and 5.352
  Pfk1 mRNA level: 1.211 and 0.6057
[9]; taken as +T cells by analogy with Fig 2G, listed as BM202
  content of NAD+: 6.047 and 6.219 and 6.464
[9]; taken as -T cells by analogy with Fig 2G, listed as BM202
  content of NAD+: 11.761 and 12.9475 and 11.7876
[10]; +PBMC, listed as BM202
  content of pyruvate (PA): 0.2451 and 0.2361 and 0.2328
[10]; -PBMC, listed as BM202
  content of pyruvate (PA): 0.1485 and 0.1357 and 0.1294

## O=C(c1ncc(CNC2CCOCC2)s1)N1CCc2c(-c3ccc4c(c3)OCCO4)cccc21 [CQ-85]
[1]; +PBMC
  content of NAD+: 10.9402 and 9.994 and 10.0633
[1]; -PBMC
  content of NAD+: 11.853 and 11.7415 and 11.8655
[2]
  IFN-γ (ELISA): 156.023 and 118.367 and 126.961
  TNF-α (ELISA): 198.796 and 198.903 and 183.742
[3]; +PBMC
  content of NAD+: 9.197 and 8.685 and 8.9355
[3]; -PBMC
  content of NAD+: 11.8739 and 12.9843 and 12.9544
[11]
  IFN-γ (ELISA): 32.0391 and 39.4609 and 37.7422 and 48.3828
  TNF-α (ELISA): 49.9785 and 53.7419 and 61.1613 and 63.957
[4]; +T Cells
  content of pyruvate (PA): 0.4897 and 0.4757 and 0.4584
[4]; -T Cells
  content of pyruvate (PA): 0.334 and 0.378 and 0.3588
[5]
  Aldoa mRNA level: 0.8971 and 0.8909 and 1.1434
  Eno1 mRNA level: 0.7363 and 0.9515 and 0.8284
  Pfk1 mRNA level: 0.9428 and 1.091 and 0.7397
[6]; +T Cells
  Aldoa mRNA level: 3.122 and 3.144 and 2.933
  Eno1 mRNA level: 1.63 and 2.181 and 1.51
  HK2 mRNA level: 1.976 and 1.225 and 1.397
  Pfk1 mRNA level: 4.524 and 5.686 and 6.18
[6]; -T Cells
  Aldoa mRNA level: 0.1409 and 0.1113 and 0.07549
  Eno1 mRNA level: 1.412 and 1.0924 and 0.8165
  Glut1 mRNA level: 0.4601 and 0.3164 and 0.3635
  HK2 mRNA level: 1.925 and 1.641 and 1.032
[12]
  TIR / tumor growth inhibition (TGI) rate at endpoint: 45.36%
[7]; +PBMC
  content of pyruvate (PA): 0.1029 and 0.09765 and 0.1064
[7]; -PBMC
  content of pyruvate (PA): 0.08688 and 0.08738 and 0.09664
[8]
  Aldoa mRNA level: 0.8847 and 0.8971 and 0.9885
  Eno1 mRNA level: 1.112 and 1.398 and 1.35
  Glut1 mRNA level: 2.253 and 2.993 and 2.146
  HK2 mRNA level: 5.011 and 5.445 and 5.877
  Pfk1 mRNA level: 1.666 and 1.544 and 1.005
[9]; taken as +T cells by analogy with Fig 2G
  content of NAD+: 6.631 and 6.489 and 6.614
[9]; taken as -T cells by analogy with Fig 2G
  content of NAD+: 10.4157 and 11.1416 and 12.0617
[10]; +PBMC
  content of pyruvate (PA): 0.2271 and 0.2241 and 0.2316
[10]; -PBMC
  content of pyruvate (PA): 0.1159 and 0.1109 and 0.1297
[13]
  effect on NAMPT protein expression: upregulate the protein expression of NAMPT

## O=C(/C=C/c1cccnc1)NCCCCC1CCN(C(=O)c2ccccc2)CC1 [FK866, reference compound]
[14]
  NAD+ in 20 mg tissue: 98.7342 and 119.831 and 110.802
A20 tumors
  effect on mouse organ or body weight: caused a reduction in the body weight of the mice
[15]
  effect on PD-L1 expression: upregulated global and membrane PD-L1 expression
[12]
  TIR / tumor growth inhibition (TGI) rate at endpoint: 43.62%

## NC(=O)c1ccc[n+]([C@@H]2O[C@H](COP(=O)([O-])O)[C@@H](O)[C@H]2O)c1 [NMN, nicotinamide mononucleotide]
[16]; NMN 1 μM added to LZFPN-90 (NMN 0 μM values equal those of 5 nM LZFPN-90)
  Relative NAD+: 79.1005 and 77.5282
[16]; NMN 5 μM added to LZFPN-90
  Relative NAD+: 81.63 and 81.9669
[16]; NMN 10 μM added to LZFPN-90
  Relative NAD+: 85.5982 and 82.7424
[16]; NMN 20 μM added to LZFPN-90
  Relative NAD+: 92.0905 and 93.6414
[16]; NMN 40 μM added to LZFPN-90
  Relative NAD+: 91.3204 and 94.481

## CC(NC(=O)c1ccccc1/N=C/c1c(O)ccc2ccccc12)c1ccccc1 (centres unmarked) [Sirtinol]
[15]
  effect on PD-L1 expression: PD-L1 was upregulated at both the mRNA and protein levels
